Results taken from US20250120643A1, “INGESTIBLE AND/OR IMPLANTABLE ARTICLES FOR MONITORING ELECTRICAL SIGNALS AND RELATED METHODS” (Massachusetts Institute of Technology, priority 2023, published 2025).
“Also recorded” adds a separate entry of the source.

Tests used:
gastric slow wave = assay: Azithromycin motility experiment: MiGUT recording in the stomach of anesthetized swine before and after intravenous prokinetic delivery; assay type: in vivo, Yorkshire swine; settings: anesthetized pig
Protocol: Motivated by the capability of the MiGUT system to detect gastric slow wave activity, an experiment was designed to test if the changes or modulations in gastric motility could also be detected. The MiGUT system was again placed in the porcine stomach of an anesthetized animal and following baseline recording, azithromycin, a known prokinetic which activates motilin receptors, was intravenously delivered (1 mg/kg total dose) via ear catheter over the course of 5 minutes (FIG. 10A(i)). […] Replicates of this experiment produced similar increases in the slow wave power (FIG. 12).
All animal experiments were approved by and performed in accordance with the Committee on Animal Care at MIT. Yorkshire swine were obtained from Cummings School of Veterinary Medicine at Tufts University (Grafton, MA, USA) for in-vivo experiments. Pigs weighing approximately 60-100 kg were placed on a liquid diet for 24 hours the day before the study and were fasted overnight prior to the study. For device placement, animals were anesthetized using an intramuscular injection of midazolam 0.25 mg/kg and dexmedetomidine 0.03 mg/kg. Following sedation, animals were placed on thermal support and ophthalmic ointment was applied to both eyes. The animal was intubated and placed on isoflurane (2%) in oxygen and connected to a vital signs monitoring system. The MiGUT device was delivered orally into the stomach, using an orogastric tube and imaged using PENTAX EC-3870TLK (160 cm) to visualize the stomach with the animal in the left lateral position.
For azithromycin experiments, following ca. 1 hr of baseline recording in the anesthetized animal, 1 mg/kg animal weight of 20 mg/ml Azithromycin (Sigma-Aldrich) solution (in PBS pH adjusted with HCL, Thermofischer) was delivered via ear catheter over the course of 5 minutes. Measurements were conducted for a minimum of 45 minutes following drug delivery. Power was calculated by summing the square of the voltage measurements in a 25 minute time window. Difference in power was calculated as (Pinitial-Pfinal)/Pinitial.
Finally, to show this system can track changes in motility, Azithromycin was administered halfway during six studies. […] It was intravenously delivered at 1 mg/kg over 5 minutes through an ear catheter. […] This indicates throughout this duration of increased gastric activity (with suspected contractions), the electrodes continued to make good contact. Thus, MiGUT is shown to be able to track changes in gastric motility and maintain a reliable interface with the mucosa.

[1] = test system: gastric slow wave and all other recorded signals; assay: Animal euthanasia study: MiGUT recording during administration of a barbiturate cocktail; assay type: in vivo, Yorkshire swine; settings: pig, euthanization during recording; 1 ml/10 lbs
Description: In an anesthetized Yorkshire pig, the device was delivered into the stomach and the electrode is shown to unroll and conform to the gastric mucosa along the greater curvature of the stomach (FIG. 7A). The reference electrode was localized near the stomach corpus (Schematic in FIG. 8). One and a half hours of recorded data in this experiment (at 62.5 samples/s) was used to generate a heat map of electrical activity vs time and channel (FIG. 7B(i)). Initial electrical activity seen in all channels following device placement (t=0 to 500 seconds) is most likely due to mechanical stimulation as a consequence of endoscopic visualization following device deployment. Channels near the pylorus (FIG. 7B(ii), channels 0-2) measured large amplitude, prolonged waveforms with periods of ca. 500 seconds with approximately 6 total cycles. […] These signals were also observed in separate experiments using the MiGUT system in different animals (N=5, Table 1).
For non-survival procedures, the animal was sedated with intramuscular injection of Telazol (tiletamine/zolazepam) 5 mg/kg and xylazine 2 mg/kg and euthanized using Fatal Plus (sodium pentobarbital), 1 ml/10 lbs. Heart rate and respiration rate are assessed via vitals monitor to ensure that the pig has been euthanized. […]

Row | SMILES | changes in the respiration and heart rate frequency bands (gastric slow wave; 1 mg/kg i.v. over 5 minutes through ear catheter, six studies) | amplitude of the slow wave (gastric slow wave; 1 mg/kg i.v. over 5 minutes through ear catheter, six studies, seen in five of the recording channels) | power in the EKG or respiratory frequency windows (gastric slow wave; 1 mg/kg i.v. over 5 minutes, 25 minutes after vs 25 minutes prior to dosing) | power in the slow wave frequency range (gastric slow wave; 1 mg/kg i.v. via ear catheter over 5 minutes, 25 minutes after vs 25 minutes prior to dosing, seen in 5 of the 8 recording channels) | effect on waveforms recorded by MiGUT (slow wave and all other signals) [1]
1 | CC[C@H]1OC(=O)[C@H](C)[C@@H](O[C@H]2C[C@@](C)(OC)[C@@H](O)[C@H](C)O2)[C@H](C)[C@@H](O[C@@H]2O[C@H](C)C[C@H](N(C)C)[C@H]2O)[C@](C)(O)C[C@@H](C)CN(C)[C@H](C)[C@@H](O)[C@]1(C)O [azithromycin] | no significant changes | significant increase | no significant change in power | noticeable increase in power | –
2 | CCCC(C)C1(CC)C(=O)N=C([O-])NC1=O.[Na+] (centres unmarked) [barbiturate cocktail, sodium pentobarbital] | – | – | – | – | terminated; also recorded: cessation of all waveforms
